In article PMC9356275, “A quantitative high-throughput screen identifies compounds that lower expression of the SCA2-and ALS-associated gene ATXN2” (The Journal of Biological Chemistry, 2022):
Counter-ions that a name gives are not always drawn. Like-named read-outs stand apart in the source and are kept apart here.

Assays:
ATXN2-luc [1] = experiment: Secondary assays: ATXN2-luc in S2 and H2 cells, 12 doses, Bright-Glo; type: cell-based, human; conditions: summary data; for IC50: Homo sapiens, ATXN2-luc luciferase assays in H2 and S2 cells, 12 doses plus a zero dose, read-out: Mean IC50; for min ATXN2-luc (%): minimum ATXN2-luc signal over 12 doses, H2 and S2 cells
in vitro = conditions: human
Procedure: The values for H2 and S2 were used as replicates to calculate IC50s and to assess cell viability.
(§1) Compounds were plated at 2× concentrations in phenol red–free DMEM in 25 μl in 384-well plates with each compound dose plated in triplicate. An equal volume of S2, H2, or SC cells (24,000 cells/well) suspended in phenol red–free DMEM with 10% fetal bovine serum and 1× penicillin/streptomycin were added. Cells were grown 24 h and then assayed first by using the CellTiter-Fluor reagent (20 μl) followed by the addition of Bright-Glo (65 μl) luciferase assay, using a multimode plate reader (Beckman; DT880). Values were reported as the mean ± SD with n = 3. IC50s were determined by the Hill coefficient method using an online tool (https://www.aatbio.com/tools/ic50-calculator).

CMV-luc [2] = experiment: Secondary assays: CMV-luc in SC cells, Bright-Glo; type: cell-based, human; conditions: minimum CMV-luc signal in SC cells over 12 doses; summary data
Procedure: as §1

ATXN2-luc [3] = experiment: MSSR pilot screen: ATXN2-luc luciferase assay (Bright-Glo) in H2 cells, single 10 μM dose; type: cell-based, human; conditions: for SD from mean (ATXN2-luc, Z-score): H2 cells, single dose (title: 10 μM compound), overnight; for ¦Score/1SD¦: absolute score divided by 1SD (0.891 or 0.9)
ATXN2-luc [4] = experiment: MSSR hit retest: ATXN2-luc luciferase assay, average of H2 and S1 cells (1 and 10 uM); type: cell-based, human; conditions: Homo sapiens; for activity at 1 µM: read-out: H2&S1 ave luc 1uM; for activity at 10 µM: head line r3 10uM
Source text: (§2) Supplement mmc2.xlsx, sheet "43 annotated compounds"

H2 and S1 cells = experiment: Paired MTT viability assay, average of H2 and S1 cells (1 and 10 uM); type: cell-based, human; conditions: Homo sapiens
Source text: as §2

CMV-luc [5] = experiment: MSSR counterscreen: CMV-luc expression in HC cells; type: cell-based, human; conditions: for CMV-luc, averages as percent of no compound control: HC cells, n=4 wells; for ATXN2 luc activity (call): summary call for the 12 pilot compounds tested on CMV-luc
ATXN2-luc [6] = experiment: NCATS qHTS (LOPAC pilot, primary and confirmation): ATXN2-luc in S2 cells, 1536-well, Steady-Glo; type: cell-based, human
Outline: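 […] S2 cells expressing ATXN2-luc in phenol red–free DMEM screened in 1536-well qHTS format. Luciferase read by Steady-Glo luminescence after 5 min at room temperature (2 s exposure), multiplexed with CellTiter-Fluor viability.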

ATXN2-luc [7] = experiment: MSSR hit retest / multiconcentration testing: ATXN2-luc luciferase assay in H2 cells (1 and 10 μM); type: cell-based, human; conditions: 1 uM compound; luciferase, average of H2 and S1 cells expressing ATXN2-luc; rescreen
[8] = 1 uM compound, average of H2 and S1 cells
[9] = average of H2 and S1 cells, read-out: H2&S1 ave luc 10uM
[10] = 1 uM compound, read-out: H2&S1 ave MTT 1uM
[11] = 10 uM compound, read-out: H2&S1 ave MTT 10uM
[12] = Homo sapiens, LOPAC library screening optimization, logarithm of AC50 (negative values), read-out: Log AC50 (converted)
[13] = Homo sapiens, LOPAC library screening optimization, read-out: AC50
[14] = LOPAC library screening optimization, read-out: AC50
[15] = pilot screen at 10 µM compound, H2 cells expressing ATXN2-luc

| Structure (SMILES) | IC50 (ATXN2-luc [1]) | min ATXN2-luc (%) (ATXN2-luc [1]) | viability at 24 h (in vitro) | min SC luc (%) (CMV-luc [2]) | other results |
| --- | --- | --- | --- | --- | --- |
| C=CCNC1=C2C[C@@H](C)C[C@H](OC)[C@H](O)[C@@H](C)/C=C(\C)[C@H](OC(N)=O)[C@@H](OC)/C=C\C=C(/C)C(=O)NC(=CC1=O)C2=O [NCGC00163424-03, tanespimycin] | 442 nM | 23.7455% | 83.6% | 96.2287% | – |
| CC[C@@]1(O)C(=O)OCc2c1cc1n(c2=O)Cc2cc3ccccc3nc2-1 [Camptothecine (S+)] | 40 nM | 14.3715% | 92.1% | 42.7084% | SD from mean (ATXN2-luc, Z-score) (ATXN2-luc [3]): -5.283 SD |
| O=c1[nH]c(=O)n([C@H]2C[C@H](O)[C@@H](CO)O2)cc1F [NCGC00023722-07, Floxuridine] | 166 nM | 25.6595% | 97.9% | 37.5061% | – |
| COc1ccc(CN2CCN(C(c3ccc(F)cc3)c3ccc(F)cc3)CC2)c(OC)c1OC [LOMERIZINE DiHCl] | – | – | – | – | activity at 1 µM (ATXN2-luc [4]; [8]): 102%; activity at 10 µM (ATXN2-luc [4]; [9]): 55%; viability at 1 µM (H2 and S1 cells; [10]): 101%; viability at 10 µM (H2 and S1 cells; [11]): 37.6%; SD from mean (ATXN2-luc, Z-score) (ATXN2-luc [3]): -2.782 SD; SD from mean (pilot screen) (ATXN2-luc [3]; pilot screen): -2.782 SD; SD from mean (pilot screen) (ATXN2-luc [3]; pilot screen, H2 cells expressing ATXN2-luc, single dose printed as 10 μM compound): -2.782; ¦Score/1SD¦ (ATXN2-luc [3]; pilot screen): 3.09; CMV-luc, averages as percent of no compound control (CMV-luc [5]; 0.1 uM compound): 97.7058% of no compound control; CMV-luc, averages as percent of no compound control (CMV-luc [5]; 1 uM compound): 102.901% of no compound control; CMV-luc, averages as percent of no compound control (CMV-luc [5]; 10 uM compound): 80.3815% of no compound control; inhibition at 1 µM (CMV-luc [5]; Homo sapiens, read-out: CMV-luc inhibition @ 1 uM): 0%; inhibition at 10 µM (CMV-luc [5]; Homo sapiens, read-out: CMV-luc inhibition @ 10 uM): 20%; ATXN2 luc activity (call) (CMV-luc [5]): Unclear |
| CN(C)CCN1C(=O)c2cccc3cc(N)cc(c23)C1=O [NCGC00346513-01, amonafide] | 1840 nM | 21.7231% | 68.2% | 69.6561% | – |
| N[C@@H](Cc1ccc(N(CCCl)CCCl)cc1)C(=O)O [NCGC00090757-05, Melphalan] | – | 44.8372% | 89.3% | 79.9664% | – |
| CC[C@H](CO)Nc1nc(NCc2ccccc2)c2ncn(C(C)C)c2n1 [NCGC00094374-05, roscovitine] | – | 57.3224% | 77.8% | 82.4469% | AC50 (ATXN2-luc [6]; [12]): 28200 nM; AC50 (ATXN2-luc [6]; [13]): 28200 nM; Log AC50 (ATXN2-luc [6]; LOPAC library screening optimization, logarithm of AC50 (negative values)): -4.5; AC50 (ATXN2-luc [6]; [14]): 31600 nM |
| C[C@@H]1O[C@@H](O[C@H]2C[C@@H](O)[C@]3(CO)[C@H]4[C@H](O)C[C@]5(C)[C@@H](C6=CC(=O)OC6)CC[C@]5(O)[C@@H]4CC[C@]3(O)C2)[C@H](O)[C@H](O)[C@H]1O [OUABAIN] | 122 nM | 6.982% | 74.3% | 122.219% | activity at 1 µM (ATXN2-luc [4]; [8]): 14%; activity at 10 µM (ATXN2-luc [4]; [9]): 12%; viability at 1 µM (H2 and S1 cells; [10]): 51.8%; viability at 10 µM (H2 and S1 cells; [11]): 60.4%; SD from mean (ATXN2-luc, Z-score) (ATXN2-luc [3]): -3.832 SD; SD from mean (pilot screen) (ATXN2-luc [3]; pilot screen): -3.832 SD; SD from mean (pilot screen) (ATXN2-luc [3]; [15]): -3.832; ¦Score/1SD¦ (ATXN2-luc [3]; pilot screen): 4.26; AC50 (ATXN2-luc [6]; [12]): < 90 nM; AC50 (ATXN2-luc [6]; [13]): < 90 nM; Curve Class (ATXN2-luc [6]; LOPAC library (1,280 compounds) screening optimization, signed sub-classes (-1.1, -2.2, -3 ...)): -1.1; AC50 (ATXN2-luc [6]; [14]): 112 nM |
| CC1(C)CC(=O)c2c(C(F)(F)F)nn(-c3ccc(C(N)=O)c(N[C@H]4CC[C@H](O)CC4)c3)c2C1 [NCGC00346633-01, SNX 2112] | – | – | 83.3% | 82.2819% | – |
| C[C@H]1O[C@@H](O[C@H]2[C@@H](O)C[C@H](O[C@H]3[C@@H](O)C[C@H](O[C@H]4CC[C@@]5(C)[C@H](CC[C@@H]6[C@@H]5C[C@@H](O)[C@]5(C)[C@@H](C7=CC(=O)OC7)CC[C@]65O)C4)O[C@@H]3C)O[C@@H]2C)C[C@H](O)[C@@H]1O [Digoxin] | – | 9.041% | 67.9% | 107.579% | activity at 1 µM (ATXN2-luc [4]): 47%; activity (ATXN2-luc [4]; read-out: H2&S1 ave luc 10uM): 12%; viability at 1 µM (H2 and S1 cells; read-out: H2&S1 ave MTT 1uM, 1 uM compound): 78.7%; viability at 10 µM (H2 and S1 cells; read-out: H2&S1 ave MTT 10uM, 10 uM compound): 73.5%; SD from mean (ATXN2-luc, Z-score) (ATXN2-luc [3]): -3.904 SD; SD from mean (pilot screen) (ATXN2-luc [3]; pilot screen): -3.904 SD; SD from mean (pilot screen) (ATXN2-luc [3]; [15]): -3.904; ¦Score/1SD¦ (ATXN2-luc [3]; pilot screen): 4.38 |
| CN1CCN(CCCN2c3ccccc3Sc3ccc(C(F)(F)F)cc32)CC1 [TRIFLUOPERAZINE HYDROCHLORIDE] | – | – | – | – | activity at 1 µM (ATXN2-luc [4]; [8]): 105%; activity at 10 µM (ATXN2-luc [4]; [9]): 1.54%; viability at 1 µM (H2 and S1 cells; [10]): 88.1%; viability at 10 µM (H2 and S1 cells; [11]): 8.76%; SD from mean (ATXN2-luc, Z-score) (ATXN2-luc [3]): -5.856 SD; SD from mean (pilot screen) (ATXN2-luc [3]; pilot screen): -5.856 SD; SD from mean (pilot screen) (ATXN2-luc [3]; [15]): -5.856; ¦Score/1SD¦ (ATXN2-luc [3]; pilot screen): 6.51; H2&S1 ave luc 1uM (ATXN2-luc [7]): 105; CMV-luc, averages as percent of no compound control (CMV-luc [5]; 0.1 uM compound): 94.6408% of no compound control; CMV-luc, averages as percent of no compound control (CMV-luc [5]; 1 uM compound): 100.563% of no compound control; CMV-luc, averages as percent of no compound control (CMV-luc [5]; 10 uM compound): 98.5115% of no compound control; Comment on CMV-luc inhibition (CMV-luc [5]; result in words): No CMV-luc inhibition at 10 uM; ATXN2 luc activity (call) (CMV-luc [5]): Unclear |

Continued, in another order:

| IC50 (ATXN2-luc [1]) | Structure (SMILES) | min ATXN2-luc (%) (ATXN2-luc [1]) | viability at 24 h (in vitro) | min SC luc (%) (CMV-luc [2]) | other results |
| --- | --- | --- | --- | --- | --- |
| 3020 nM | S=C(NCc1ccc2c(c1)OCO2)N1CCN(c2ncnc3c2oc2ccccc23)CC1 [NCGC00263158-01, MP470] | 55.0637% | 87.7% | 74.2577% | – |
| 178 nM | CC(C)c1cc(C(=O)N2Cc3ccc(CN4CCN(C)CC4)cc3C2)c(O)cc1O [NCGC00346674-01, AT13387] | 22.3111% | 90.6% | 71.1894% | – |
| 21100 nM | Cc1cc(Nc2cc(CN3CCOCC3)c3nc(C)c(Cc4ccc(Cl)cc4F)n3n2)n[nH]1 [NCGC00345461-02, LY2784544] | 23.1503% | 81.6% | 67.1857% | – |
| 57500 nM | O=C1NC(=O)/C(=C/c2ccc3nccc(-c4ccncc4)c3c2)S1 [NCGC00346509-01, GSK 1059615] | 51.4419% | 75.5% | 85.5514% | – |
| 343 nM | C=CCn1c(=O)c2cnc(Nc3ccc(N4CCN(C)CC4)cc3)nc2n1-c1cccc(C(C)(C)O)n1 [NCGC00263183-01, MK 1775] | 21.7344% | 77.9% | 63.0447% | – |
| 436 nM | CNC(=O)c1nn(C)c2c1C(C)(C)Cc1cnc(Nc3ccc(N4CCN(C)CC4)cc3)nc1-2 [NCGC00346673-01, PHA-848125] | 15.8759% | 74.4% | 96.2246% | – |
| 162 nM | O=C(NC1CCNCC1)c1[nH]ncc1NC(=O)c1c(Cl)cccc1Cl [NCGC00263091-01, AT7519] | 14.5407% | 50.3% | 103.668% | – |
| 3730 nM | CNC(=O)c1cc(Oc2ccc(NC(=O)Nc3cc(C(C)(C)C)nn3-c3ccc4ncccc4c3)c(F)c2)ccn1 [NCGC00263172-01, DCC-2036] | 27.0713% | 56.6% | 60.5803% | – |
| 9770 nM | COc1cc2ncn(-c3cc(OCc4ccccc4C(F)(F)F)c(C(N)=O)s3)c2cc1OC [NCGC00242217-04, GW843682X] | 57.1311% | 75.5% | 87.9923% | – |
